The source of these data is BindingDB's records for doi:10.1016/j.bmcl.2004.05.088 (Eli Lilly, 2004).

Structures can show the parent of a compound that is named as a salt.

Test in all cases: CDK Kinase Inhibition Assay
Assay [1] has as its target cAMP-dependent protein kinase catalytic subunit alpha (Bos taurus, UniProt P00517). The settings on record: 25 °C.
Assay [2] deals with Cyclin-dependent kinase 4/G1/S-specific cyclin-D1 (Homo sapiens, UniProt P11802). Particulars: pH 7; 22 °C. The method, then: (§1) In vitro CDK assay using purified enzyme, was incubated at room temperature with substrate, and test compounds in the presence of ATP/[gamma-33P]ATP. 33P incorporation was measured with a Top Count (Packard). IC50 is the inhibitor concentration which inhibits 50% of kinase activity that catalyzes the transfer of the terminal phosphate from 33P labeled ATP to the substrate.

The target in assay [3] is Cyclin-dependent kinase 2/G1/S-specific cyclin-E1 (Homo sapiens, UniProt P24941). Particulars: 25 °C. The protocol: as §1

Chain of Cyclin-dependent kinase 4/G1/S-specific cyclin-D1 (P11802 whole entry): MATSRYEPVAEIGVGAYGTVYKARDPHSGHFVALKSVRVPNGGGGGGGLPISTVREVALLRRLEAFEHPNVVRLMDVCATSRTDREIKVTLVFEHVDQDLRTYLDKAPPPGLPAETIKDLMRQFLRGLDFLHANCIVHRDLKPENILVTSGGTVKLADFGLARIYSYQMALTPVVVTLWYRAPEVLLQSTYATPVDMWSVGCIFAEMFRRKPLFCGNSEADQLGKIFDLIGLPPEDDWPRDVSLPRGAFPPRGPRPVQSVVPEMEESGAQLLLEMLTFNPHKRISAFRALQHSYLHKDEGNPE
Chain of Cyclin-dependent kinase 4/G1/S-specific cyclin-D1 (P24385 whole entry, further chain): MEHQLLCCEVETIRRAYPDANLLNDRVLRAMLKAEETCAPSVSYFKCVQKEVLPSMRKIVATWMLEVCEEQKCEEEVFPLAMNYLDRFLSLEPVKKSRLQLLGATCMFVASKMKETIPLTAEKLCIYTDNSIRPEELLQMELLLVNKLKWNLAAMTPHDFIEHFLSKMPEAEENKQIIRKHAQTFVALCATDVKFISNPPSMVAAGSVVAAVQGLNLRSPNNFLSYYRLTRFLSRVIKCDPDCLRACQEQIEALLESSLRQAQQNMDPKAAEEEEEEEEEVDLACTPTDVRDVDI

As a reminder, the IC50 is the point on the concentration scale where inhibition reaches its midpoint. A higher IC50 goes with weaker potency. As for `CC(C)N1CCn2c3c(cccc3c3c4c(c5c6ccccc6[nH]c5c32)C(=O)NC4=O)C1` [24-(propan-2-yl)-1,4,14,24-tetraazaheptacyclo[16.8.1.0^{2,17}.0^{3,11}.0^{5,10}.0^{12,16}.0^{22,27}]heptacosa-2(17),3(11),5(10),6,8,12(16),18(27),19,21-nonaene-13,15-dione], the concentration for half-maximal inhibition (IC50) in assay [1] is above 2000 nM; in assay [2] it was 78 nM. Regarding `O=C1NC(=O)c2c1c1c3ccccc3[nH]c1c1c2c2cccc3c2n1CCNC3` [1,4,14,24-tetraazaheptacyclo[16.8.1.0^{2,17}.0^{3,11}.0^{5,10}.0^{12,16}.0^{22,27}]heptacosa-2(17),3(11),5(10),6,8,12(16),18(27),19,21-nonaene-13,15-dione hydrochloride], the IC50 in assay [2] is 27 nM; in assay [3], 38 nM. For `NCC(=O)N1CCn2c3c(cccc3c3c4c(c5c6ccccc6[nH]c5c32)C(=O)NC4=O)C1` [24-(2-aminoacetyl)-1,4,14,24-tetraazaheptacyclo[16.8.1.0^{2,17}.0^{3,11}.0^{5,10}.0^{12,16}.0^{22,27}]heptacosa-2(17),3(11),5(10),6,8,12(16),18(27),19,21-nonaene-13,15-dione hydrochloride], the IC50 is above 2000 nM in assay [1] and 100 nM in assay [2].

As for `O=C1NC(=O)c2c1c1c3cc(F)ccc3[nH]c1c1c2c2cccc3c2n1CCNC3` [8-fluoro-1,4,14,24-tetraazaheptacyclo[16.8.1.0^{2,17}.0^{3,11}.0^{5,10}.0^{12,16}.0^{22,27}]heptacosa-2(17),3(11),5(10),6,8,12(16),18(27),19,21-nonaene-13,15-dione hydrochloride], the half-maximal inhibitory concentration (IC50) in assay [2] is 34 nM. That is a double-digit nanomolar value. Regarding `CS(=O)(=O)N1CCn2c3c(cccc3c3c4c(c5c6ccccc6[nH]c5c32)C(=O)NC4=O)C1` [24-methanesulfonyl-1,4,14,24-tetraazaheptacyclo[16.8.1.0^{2,17}.0^{3,11}.0^{5,10}.0^{12,16}.0^{22,27}]heptacosa-2(17),3(11),5(10),6,8,12(16),18(27),19,21-nonaene-13,15-dione], the values for the IC50 in assay [1] and in assay [2] were above 2000 nM and 53 nM, respectively. In assay [2], `O=C1NC(=O)c2c1c1c3ccccc3[nH]c1c1c2c2cccc3c2n1CCNCC3` [1,4,14,25-tetraazaheptacyclo[16.9.1.0^{2,17}.0^{3,11}.0^{5,10}.0^{12,16}.0^{22,28}]octacosa-2(17),3(11),5(10),6,8,12(16),18(28),19,21-nonaene-13,15-dione hydrochloride] returned a half-inhibitory concentration (IC50) of 160 nM.

In turn, `O=C1NC(=O)c2c1c1c3ccc(F)cc3[nH]c1c1c2c2cccc3c2n1CCNC3` [7-fluoro-1,4,14,24-tetraazaheptacyclo[16.8.1.0^{2,17}.0^{3,11}.0^{5,10}.0^{12,16}.0^{22,27}]heptacosa-2(17),3(11),5(10),6,8,12(16),18(27),19,21-nonaene-13,15-dione hydrochloride] had an IC50 in assay [3] of 16 nM. On to `O=C1NC(=O)c2c1c1c3ccc(C(F)(F)F)cc3[nH]c1c1c2c2cccc3c2n1CCNC3` [7-(trifluoromethyl)-1,4,14,24-tetraazaheptacyclo[16.8.1.0^{2,17}.0^{3,11}.0^{5,10}.0^{12,16}.0^{22,27}]heptacosa-2(17),3(11),5(10),6,8,12(16),18(27),19,21-nonaene-13,15-dione hydrochloride], for which the IC50 in assay [1] is above 2000 nM; in assay [2], 69 nM. The matching figures for `O=C1NC(=O)c2c1c1c3cc(F)c(F)cc3[nH]c1c1c2c2cccc3c2n1CCNC3` [7,8-difluoro-1,4,14,24-tetraazaheptacyclo[16.8.1.0^{2,17}.0^{3,11}.0^{5,10}.0^{12,16}.0^{22,27}]heptacosa-2(17),3(11),5(10),6,8,12(16),18(27),19,21-nonaene-13,15-dione hydrochloride]: above 2000 nM and 110 nM. For the molecule `Cn1cnc(S(=O)(=O)N2CCn3c4c(cccc4c4c5c(c6c7ccccc7[nH]c6c43)C(=O)NC5=O)C2)c1` [24-[(1-methyl-1H-imidazole-4-)sulfonyl]-1,4,14,24-tetraazaheptacyclo[16.8.1.0^{2,17}.0^{3,11}.0^{5,10}.0^{12,16}.0^{22,27}]heptacosa-2(17),3(11),5(10),6,8,12(16),18(27),19,21-nonaene-13,15-dione], the figures for the 50% inhibitory concentration (IC50) in assay [1] and in assay [2] were above 2000 nM and 120 nM, respectively. In assay [2], `O=C1NC(=O)c2c1c1c3ccc(C(F)(F)F)c(CO)c3[nH]c1c1c2c2cccc3c2n1CCNC3` [6-(hydroxymethyl)-7-(trifluoromethyl)-1,4,14,24-tetraazaheptacyclo[16.8.1.0^{2,17}.0^{3,11}.0^{5,10}.0^{12,16}.0^{22,27}]heptacosa-2(17),3(11),5(10),6,8,12(16),18(27),19,21-nonaene-13,15-dione hydrochloride] gave a half-inhibitory concentration (IC50) of 44 nM.
